Consider twelve compounds from patent publication US20240342292A1, “Compounds for the Degradation of EGFR Kinase” (BeiGene Switzerland GmbH, priority 2021, published 2024).

The target of one test is T1, L858R/T790M/C797S EGFR (Homo sapiens, UniProt P00533, C797S/L858R/T790M).
T1 construct: expressed in transfected cells; host or cells: H1975 clone #25 (lentiviral over-expression, endogenous EGFR knocked out by sgRNA)
Briefly: EGFR degradation HTRF assay in H1975-clone #25 (LTC) cells. Format: cell-based. The conditions noted are these: 16h treatment; for DC50: H1975 # 25-LTC (L858R/T790M/C797S), HTRF; for Dmax: NCI-H1975, H1975 # 25-LTC (L858R/T790M/C797S), maximum percentage of degradation. In outline: (§1)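 H1975 clones stably overexpressing mutant EGFR by lentivirus, with endogenous EGFR knocked out by sgRNA and homozygosity confirmed by sequencing, were treated 16 h at 37 °C with compounds in 0.2% DMSO medium, 8 doses from 10 uM in 5-fold dilution. Lysates were read by HTRF (665/620 nm); DC50 came from a four-parameter fit.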
A general note: TR-FRET usually uses a lanthanide donor and a delayed reading to cut background.

A further test concerns Del19/T790M/C797S EGFR. Briefly: EGFR degradation HTRF assay in H1975-clone #28 (DTC) cells. It is filed as cell-based. The conditions noted are these: H1975 # 28 DTC (Del19/T790M/C797S), 16h treatment; for DC50: HTRF; for Dmax (%): maximum percentage of degradation. The gist of the method:
as §1

SMILES strings stand for the structures.

T1 sequence (P00533 25-1210 T790M/C797S/L858R): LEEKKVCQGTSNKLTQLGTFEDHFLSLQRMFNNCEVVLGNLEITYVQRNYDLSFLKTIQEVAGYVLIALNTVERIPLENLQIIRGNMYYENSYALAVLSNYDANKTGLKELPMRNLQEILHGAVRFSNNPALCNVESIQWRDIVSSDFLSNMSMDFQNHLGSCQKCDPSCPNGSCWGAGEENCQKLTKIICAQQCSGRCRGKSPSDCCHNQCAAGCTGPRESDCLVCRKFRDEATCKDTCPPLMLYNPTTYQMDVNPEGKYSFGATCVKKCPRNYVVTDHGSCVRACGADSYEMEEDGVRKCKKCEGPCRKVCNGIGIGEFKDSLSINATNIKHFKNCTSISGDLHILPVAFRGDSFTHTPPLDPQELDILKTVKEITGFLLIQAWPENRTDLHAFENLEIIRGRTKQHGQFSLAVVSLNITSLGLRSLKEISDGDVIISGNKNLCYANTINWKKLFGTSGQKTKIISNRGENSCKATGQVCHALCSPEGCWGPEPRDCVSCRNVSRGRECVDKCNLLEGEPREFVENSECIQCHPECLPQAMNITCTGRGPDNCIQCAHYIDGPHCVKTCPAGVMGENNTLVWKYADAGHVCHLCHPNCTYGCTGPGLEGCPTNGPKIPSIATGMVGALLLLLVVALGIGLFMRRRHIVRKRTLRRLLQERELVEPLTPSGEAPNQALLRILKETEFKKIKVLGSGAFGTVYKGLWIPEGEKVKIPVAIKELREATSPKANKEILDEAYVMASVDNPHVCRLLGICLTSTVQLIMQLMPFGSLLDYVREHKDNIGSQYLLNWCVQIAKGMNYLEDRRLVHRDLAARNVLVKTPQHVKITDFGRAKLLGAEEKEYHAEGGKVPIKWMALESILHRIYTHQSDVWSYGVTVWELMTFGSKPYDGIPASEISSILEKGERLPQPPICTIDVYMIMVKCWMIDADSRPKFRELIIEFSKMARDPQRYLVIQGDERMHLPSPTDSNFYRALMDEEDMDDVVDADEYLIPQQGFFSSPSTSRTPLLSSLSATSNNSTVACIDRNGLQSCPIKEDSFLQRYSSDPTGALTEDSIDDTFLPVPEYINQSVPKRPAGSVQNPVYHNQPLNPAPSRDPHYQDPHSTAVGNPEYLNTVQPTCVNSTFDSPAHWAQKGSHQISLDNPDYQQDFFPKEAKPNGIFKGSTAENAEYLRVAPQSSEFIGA

The term DC50 denotes the midpoint of the concentration-degradation curve. Lower therefore signals degradation at low concentration. The Dmax is the greatest extent of degradation seen. Turning to `Cc1cc2cc(n1)-c1cnn(C)c1OCCC[C@@H](C)CN1/C(=N/C2=O)Nc2ccc(N3CCC(C(=O)N4CCC(Nc5cc(F)c([C@H]6CCC(=O)NC6=O)c(F)c5)CC4)CC3)cc21` [Example 402, (R)-3-(2,6-difluoro-4-((1-(1-((R,E)-1^1,2^6,7-trimethyl-3-oxo-5^2,53-dihydro-1^1H,5^1H-11-oxa-4-aza-5(2,1)-benzo[d]imidazola-2(2,4)-pyridina-1(4,5)-pyrazolacycloundecaphane-5^6-yl)piperidine-4-carbonyl)piperidin-4-yl)amino)phenyl)piperidine-2,6-dione], at L858R/T790M/C797S EGFR, the DC50 was 0.633 nM and the Dmax amounted to 88.3%. In the test on Del19/T790M/C797S EGFR, the DC50 was 0.525 nM and the “Dmax (%)” value was 82.56%.

At L858R/T790M/C797S EGFR, `Cc1cc2cc(n1)-c1cnn(C)c1OCCC[C@@H](C)CN1/C(=N/C2=O)Nc2ccc(C(=O)N(C)[C@@H]3CCN(CCc4cc(F)c([C@H]5CCC(=O)NC5=O)c(F)c4)C[C@H]3C)cc21` [Example 257, (R,E)-N—((3R,4R)-1-(4-((R)-2,6-dioxopiperidin-3-yl)-3,5-difluorophenethyl)-3-methylpiperidin-4-yl)-N,1^1,2^6,7-tetramethyl-3-oxo-5^2,5^3-dihydro-1^1H,5^1H-11-oxa-4-aza-5(2,1)-benzo[d]imidazola-2(2,4)-pyridina-1(4,5)-pyrazolacycloundecaphane-5^6-carboxamide] came in with a DC50 of 0.512 nM and a Dmax of 88%. For the same compound, in the test on Del19/T790M/C797S EGFR, the DC50 was 0.57 nM and the “Dmax (%)” value was 80.82%.

On L858R/T790M/C797S EGFR, `Cc1cc2cc(n1)-c1cnn(C)c1OCCC[C@@H](C)CN1/C(=N/C2=O)Nc2ccc(N3CCN(CC4CCN(c5cc(F)c([C@H]6CCC(=O)NC6=O)c(F)c5)CC4)CC3)cc21` [Example 322, (R)-3-(2,6-difluoro-4-(4-((4-((R,E)-1^1,2^6,7-trimethyl-3-oxo-5^2,5^3-dihydro-1^1H,5^1H-11-oxa-4-aza-5(2, 1)-benzo[d]imidazola-2(2,4)-pyridina-1(4,5)-pyrazolacycloundecaphane-5^6-yl)piperazin-1-yl)methyl)piperidin-1-yl)phenyl)piperidine-2,6-dione] had a DC50 of 1.21 nM and a Dmax of 86.8%. Besides, in the test on Del19/T790M/C797S EGFR, half-maximal degradation (DC50) was put at 0.934 nM and the “Dmax (%)” value was found to be 74.99%.

In the case of `Cc1cc2cc(n1)-c1cnn(C)c1OCCC[C@@H](C)CN1/C(=N/C2=O)Nc2ccc(N3CCC(C(=O)N(C)CCc4cc(F)c([C@H]5CCC(=O)NC5=O)c(F)c4)CC3)cc21` [Example 335, N-(4-((R)-2,6-dioxopiperidin-3-yl)-3,5-difluorophenethyl)-N-methyl-1-((R,E)-1^1,2^6,7-trimethyl-3-oxo-5^2,5^3-dihydro-1^1H,5^1H-11-oxa-4-aza-5(2,1)-benzo[d]imidazola-2(2,4)-pyridina-1(4,5)-pyrazolacycloundecaphane-5^6-yl)piperidine-4-carboxamide], at L858R/T790M/C797S EGFR, the DC50 amounted to 0.657 nM and the Dmax is 79.4%. Moreover, in the test with Del19/T790M/C797S EGFR, the half-maximal degradation concentration (DC50) was 0.789 nM and the “Dmax (%)” value was determined as 60.16%.

As for `Cc1cc2cc(n1)-c1cnn(C)c1OCCC[C@@H](C)CN1/C(=N/C2=O)Nc2ccc(N3CCN(CCc4cc(F)c([C@H]5CCC(=O)NC5=O)c(F)c4)CC3=O)cc21` [Example 366, (R)-3-(2,6-difluoro-4-(2-(3-oxo-4-((R,E)-1^1,2^6,7-trimethyl-3-oxo-5^2,5^3-dihydro-1^1H,5^1H-11-oxa-4-aza-5(2,1)-benzo[d]imidazola-2(2,4)-pyridina-1(4,5)-pyrazolacycloundecaphane-5^6-yl)piperazin-1-yl)ethyl)phenyl)piperidine-2,6-dione], on L858R/T790M/C797S EGFR, it took 0.372 nM to reach half-maximal degradation (DC50) and the Dmax was 91.8%. Moreover, in the test on Del19/T790M/C797S EGFR, the DC50 was 0.539 nM and the “Dmax (%)” value is reported as 84.74%.

For the compound `Cc1cc2cc(n1)-c1cnn(C)c1OCC[C@@H]1C[C@H]1CN1/C(=N/C2=O)Nc2ccc(N3CCC(C(=O)N4CCN(c5cc(F)c([C@H]6CCC(=O)NC6=O)c(F)c5)CC4)CC3)cc21` [Example 367, (R)-3-(4-(4-(1-((71R,72S,E)-1^1,2^6-dimethyl-3-oxo-5^2,5^3-dihydro-1^1H,5^1H-10-oxa-4-aza-5(2,1)-benzo[d]imidazola-2(2,4)-pyridina-1(4,5)-pyrazola-7(1,2)-cyclopropanacyclodecaphane-5^6-yl)piperidine-4-carbonyl)piperazin-1-yl)-2,6-difluorophenyl)piperidine-2,6-dione], at L858R/T790M/C797S EGFR, half-maximal degradation (DC50) was put at 1.31 nM and the Dmax came out at 87.8%. In the test on Del19/T790M/C797S EGFR, the DC50 amounted to 0.623 nM and the “Dmax (%)” value worked out at 80.77%.

Consider `Cc1cc2cc(n1)-c1cnn(C)c1OCCC[C@@H](C)CN1/C(=N/C2=O)Nc2ccc(C3CCN(C4CCN(c5cc(F)c([C@H]6CCC(=O)NC6=O)c(F)c5)CC4)CC3)cc21` [Example 332, (R)-3-(2,6-difluoro-4-(4-((R,E)-1^1,2^6,7-trimethyl-3-oxo-5^2,5^3-dihydro-1^1H,5^1H-11-oxa-4-aza-5(2,1)-benzo[d]imidazola-2(2,4)-pyridina-1(4,5)-pyrazolacycloundecaphane-5^6-yl)-[1,4′-bipiperidin]-1′-yl)phenyl)piperidine-2,6-dione], for which, on L858R/T790M/C797S EGFR, the DC50 stood at 0.995 nM and the Dmax was 91.2%. Moreover, in the test with Del19/T790M/C797S EGFR, it took 1.31 nM to reach half-maximal degradation (DC50) and the “Dmax (%)” value is listed as 86.39%.

As for `Cc1cc2cc(n1)-c1cnn(C)c1OCCC[C@@H](C)CN1/C(=N/C2=O)Nc2ccc(CN3CC4(C3)CN(C(=O)[C@@H]3CCN(c5cc(F)c([C@H]6CCC(=O)NC6=O)c(F)c5)C3)C4)cc21` [Example 78, (R)-3-(2,6-difluoro-4-((R)-3-(6-(((R,E)-1^1,2^6,7-trimethyl-3-oxo-5^2,5^3-dihydro-1^1H,5^1H-11-oxa-4-aza-5(2,1)-benzo[d]imidazola-2(2,4)-pyridina-1(4,5)-pyrazolacycloundecaphane-5^6-yl)methyl)-2,6-diazaspiro[3.3]heptane-2-carbonyl)pyrrolidin-1-yl)phenyl)piperidine-2,6-dione], on L858R/T790M/C797S EGFR, the DC50 was 0.5 nM and the Dmax was 90.2%. Besides, in the test with Del19/T790M/C797S EGFR, it took 0.7 nM to reach half-maximal degradation (DC50) and the “Dmax (%)” value is 82.6%.

At L858R/T790M/C797S EGFR, `Cc1cc2cc(n1)-c1cnn(C)c1OCCC[C@@H](C)CN1/C(=N/C2=O)Nc2ccc(N3C[C@H](C)N(C4CCN(c5cc(F)c([C@H]6CCC(=O)NC6=O)c(F)c5)CC4)C[C@H]3C)cc21` [Example 380, (R)-3-(4-(4-((2S,5R)-2,5-dimethyl-4-((R,E)-1^1,2^6,7-trimethyl-3-oxo-5^2,5^1-dihydro-1^1H,5^1H-11-oxa-4-aza-5(2,1)-benzo[d]imidazola-2(2,4)-pyridina-1(4,5)-pyrazolacycloundecaphane-5^6-yl)piperazin-1-yl)piperidin-1-yl)-2,6-difluorophenyl)piperidine-2,6-dione] displayed a DC50 of 3.35 nM and a maximal degradation (Dmax) of 80.2%. Besides, in the test with Del19/T790M/C797S EGFR, the DC50 amounted to 2.25 nM and the “Dmax (%)” value was determined as 76.83%.

On L858R/T790M/C797S EGFR, `Cc1cc2cc(n1)-c1cnn(C)c1OCCC[C@@H](C)CN1/C(=N/C2=O)Nc2ccc(CN3CCC4(CC3)CN(CCc3cc(F)c([C@H]5CCC(=O)NC5=O)c(F)c3)C4)cc21` [Example 23, (R)-3-(2,6-difluoro-4-(2-(7-(((R,E)-1^1,2^6,7-trimethyl-3-oxo-5^2,5^3-dihydro-1^1H,5^1H-11-oxa-4-aza-5(2,1)-benzo[d]imidazola-2(2,4)-pyridina-1(4,5)-pyrazolacycloundecaphane-5^6-yl)methyl)-2,7-diazaspiro[3.5]nonan-2-yl)ethyl)phenyl)piperdine-2,6-dione] returned a DC50 of 2.3 nM and a Dmax of 91.8%. In the test on Del19/T790M/C797S EGFR, the 50% degradation concentration (DC50) was determined as 2.1 nM and the “Dmax (%)” value is reported as 78.0%.

For `Cc1cc2cc(n1)-c1cnn(C)c1OCCC[C@@H](C)CN1/C(=N/C2=O)Nc2ccc(C(=O)N3CCC(C4CN(CCc5cc(F)c([C@H]6CCC(=O)NC6=O)c(F)c5)C4)CC3)cc21` [Example 312, (R)-3-(2,6-difluoro-4-(2-(3-(1-((R,E)-1^1,2^6,7-trimethyl-3-oxo-5^2,5^3-dihydro-1^1H,5^1H-11-oxa-4-aza-5(2,1)-benzo[d]imidazola-2(2,4)-pyridina-1(4,5)-pyrazolacycloundecaphane-5^6-carbonyl)piperidin-4-yl)azetidin-1-yl)ethyl)phenyl)piperidine-2,6-dione], on L858R/T790M/C797S EGFR, the DC50 stood at 0.906 nM and the greatest degradation seen (Dmax) is 85.8%. Besides, in the test with Del19/T790M/C797S EGFR, it took 0.689 nM to reach half-maximal degradation (DC50) and the “Dmax (%)” value was 47.95%.

At L858R/T790M/C797S EGFR, `Cc1cc2cc(n1)-c1cnn(C)c1OCCC[C@@H](C)CN1/C(=N/C2=O)Nc2ccc(N3CCN(C4CCN(c5cc(F)c([C@H]6CCC(=O)NC6=O)c(F)c5)CC4)CC3=O)cc21` [Example 374, (R)-3-(2,6-difluoro-4-(4-(3-oxo-4-((R,E)-1^1,2^6,7-trimethyl-3-oxo-5^2,5^3-dihydro-1^1H,5^1H-11-oxa-4-aza-5(2,1)-benzo[d]imidazola-2(2,4)-pyridina-1(4,5)-pyrazolacycloundecaphane-5^6-yl)piperazin-1-yl)piperidin-1-yl)phenyl)piperidine-2,6-dione] gave a DC50 of 0.591 nM and a Dmax of 92.7%. Further, in the test with Del19/T790M/C797S EGFR, the DC50 stood at 0.583 nM and the “Dmax (%)” value is listed as 81.48%.
